Like-named read-outs stand apart in the source and are kept apart here.

The values below come from patent US20230312587A1, “PTERIDINONE COMPOUNDS AND USES THEREOF” (Vertex Pharmaceutical Incorporated, priority 2018, published 2023).

The subject of the test is β-catenin-TCF-mediated reporter transcription activity in Colo 205 cells. Kind of test: Colo 205 reporter assay (TCF/LEF luciferase). Type of test: cell-based. The following applies: Colo 205 TCF/LEF luciferase reporter, five hours after addition of compound, read-out: TCF reporter Colo205 IC50. In outline:
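Luciferase signal from a TCF/LEF-driven reporter, stably integrated in Colo 205 colon cancer cells, was measured 5 h after compound addition.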

Take `Cc1nc(NC2CN(C(=O)Cc3cccc(F)c3F)C2)nc2c1NC(=O)[C@H](C(C)C)N2C` [Compound 632, (S)-2-((1-(2-(2,3-difluorophenyl)acetyl)azetidin-3-yl)amino)-7-isopropyl-4,8-dimethyl-7,8-dihydropteridin-6(5H)-one]: the half-maximal inhibitory concentration (IC50) (Homo sapiens, COLO 205, 5 h) is 300 to 1000 nM.
On to `Cc1nc(NC2CN(C(=O)[C@H]3CCCO3)C2)nc2c1NC(=O)[C@H](C(C)C)N2C` [Compound 636, (S)-7-isopropyl-4,8-dimethyl-2-((1-((R)-tetrahydrofuran-2-carbonyl)azetidin-3-yl)amino)-7,8-dihydropteridin-6(5H)-one], for which the IC50 (Homo sapiens, COLO 205, 5 h) is no less than 5000 nM.
With `Cc1nc(N[C@H]2C[C@@H](Oc3cnc(C(F)(F)F)nc3)C2)nc2c1NC(=O)[C@H](C(C)C)N2C` [Compound 644, (S)-7-isopropyl-4,8-dimethyl-2-((cis-3-((2-(trifluoromethyl)pyrimidin-5-yl)oxy)cyclobutyl)amino)-7,8-dihydropteridin-6(5H)-one], for the setting “Homo sapiens, COLO 205, 5 h”, the IC50 is less than 300 nM.
Regarding `COC1(C2C(=O)Nc3c(C)nc(N[C@H]4C[C@H](COc5ccc(C(F)(F)F)nc5)C4)nc3N2C)CCC1` (relative stereo) [Compound 669, 7-(1-methoxycyclobutyl)-4,8-dimethyl-2-((trans-3-(((6-(trifluoromethyl)pyridin-3-yl)oxy)methyl)cyclobutyl)amino)-7,8-dihydropteridin-6(5H)-one], the IC50 (Homo sapiens, COLO 205, 5 h) is less than 300 nM.
The same measure, in the same setting: to `CC[C@@]1(C)C(=O)N(C)c2cnc(NCc3cnn(Cc4ccc(F)cc4)c3)nc2N1C` [Compound I-226] belongs less than 300 nM; to `CC[C@H]1C(=O)Nc2c(C)nc(NCc3cnn(Cc4cnc(F)c(OC)c4)c3)nc2N1C` [Compound 394, (7S)-7-Ethyl-2-(((1-((6-fluoro-5-methoxypyridin-3-yl)methyl)-1H-pyrazol-4-yl)methyl)amino)-4,8-dimethyl-7,8-dihydropteridin-6(5H)-one], less than 300 nM.
Regarding `Cc1nc(NCc2cnn([C@H](C)c3ccc(F)cc3)c2)nc2c1NC(=O)[C@H](C)N2C` [Compound 72, (7S)-2-(((1-((R)-1-(4-fluorophenyl)ethyl)-1H-pyrazol-4-yl)methyl)amino)-4,7,8-trimethyl-7,8-dihydropteridin-6(5H)-one], under “Homo sapiens, COLO 205, 5 h”, the IC50 was less than 300 nM.
Still for that read-out and setting: the figure for `CO[C@H](C)[C@H]1C(=O)Nc2c(C)nc(N[C@H]3C[C@@H](Cn4ccc(C(F)(F)F)n4)C3)nc2N1C` [Compound 691, (S)-7-((R)-1-methoxyethyl)-4,8-dimethyl-2-((cis-3-((3-(trifluoromethyl)-1H-pyrazol-1-yl)methyl)cyclobutyl)amino)-7,8-dihydropteridin-6(5H)-one] is less than 300 nM; for `Cc1nc(NCc2cnn(Cc3ccnc(N(C)C)c3)c2)nc2c1NC(=O)[C@H](C)N2C` [Compound 12, (7S)-2-(((1-((2-(dimethylamino)pyridin-4-yl)methyl)-1H-pyrazol-4-yl)methyl)amino)-4,7,8-trimethyl-7,8-dihydropteridin-6(5H)-one] it is 300 to 1000 nM.
With `C[C@H]1C(=O)Nc2cnc(NC3CC(C)(OCc4cc(F)c(F)c(F)c4)C3)nc2N1C` (stereo in doubt) [Compound 289, (S)-7,8-dimethyl-2-((cis-3-methyl-3-((3,4,5-trifluorobenzyl)oxy)cyclobutyl)amino)-7,8-dihydropteridin-6(5H)-one], the half-inhibitory concentration (IC50) is no less than 5000 nM.
On to `Cc1nc(NCc2cnn(Cc3ccc(C(F)(F)F)nc3)c2)nc2c1NC(=O)[C@H](CC(C)C)N2C` [Compound 563, (S)-7-isobutyl-4,8-dimethyl-2-(((1-((6-(trifluoromethyl)pyridin-3-yl)methyl)-1H-pyrazol-4-yl)methyl)amino)-7,8-dihydropteridin-6(5H)-one], for which, for the setting “Homo sapiens, COLO 205, 5 h”, the half-inhibitory concentration (IC50) was less than 300 nM.
Still for that read-out and setting: to `Cc1cc(F)ccc1Cn1cc(CNc2nc(C)c3c(n2)N(C)[C@@H](C)C(=O)N3)cn1` [Compound 66, (7S)-2-(((1-(4-fluoro-2-methylbenzyl)-1H-pyrazol-4-yl)methyl)amino)-4,7,8-trimethyl-7,8-dihydropteridin-6(5H)-one] belongs less than 300 nM.
As to `COCC1(C)C(=O)Nc2c(C)nc(N[C@H]3C[C@H](Oc4cnc(C(F)(F)F)nc4)C3)nc2N1C` (relative stereo) [Compound 706, 7-(methoxymethyl)-4,7,8-trimethyl-2-((trans-3-((2-(trifluoromethyl)pyrimidin-5-yl)oxy)cyclobutyl)amino)-7,8-dihydropteridin-6(5H)-one], the half-inhibitory concentration (IC50) lay within 300 to 1000 nM.
In the case of `Cc1nc(NCc2ccnc(N3CCOCC3)c2)nc2c1NC(=O)[C@H](C)N2C` [Compound 62, (S)-4,7,8-trimethyl-2-(((2-morpholinopyridin-4-yl)methyl)amino)-7,8-dihydropteridin-6(5H)-one], the IC50 (Homo sapiens, COLO 205, 5 h) is no less than 5000 nM.
Regarding `Cc1nc(N[C@H]2C[C@H](NC(=O)NC3CCC(F)(F)CC3)C2)nc2c1NC(=O)[C@H](C(C)C)N2C` [Compound 524, 1-(4,4-difluorocyclohexyl)-3-(trans-3-(((S)-7-isopropyl-4,8-dimethyl-6-oxo-5,6,7,8-tetrahydropteridin-2-yl)amino)cyclobutyl)urea], the concentration for half-maximal inhibition (IC50) (Homo sapiens, COLO 205, 5 h) was no less than 5000 nM.
The same measure, in the same setting: to `Cc1nc(NCc2ncn(Cc3ccc(OC(F)(F)F)cc3)n2)nc2c1NC(=O)[C@H](C(C)C)N2C` [Compound 489, (S)-7-isopropyl-4,8-dimethyl-2-(((1-(4-(trifluoromethoxy)benzyl)-1H-1,2,4-triazol-3-yl)methyl)amino)-7,8-dihydropteridin-6(5H)-one] belongs no less than 5000 nM; to `Cc1nc(N[C@H]2C[C@@H](COc3ccnn3C)C2)nc2c1NC(=O)[C@H](C(C)C)N2C` [Compound 693, (S)-7-isopropyl-4,8-dimethyl-2-((cis-3-(((1-methyl-1H-pyrazol-5-yl)oxy)methyl)cyclobutyl)amino)-7,8-dihydropteridin-6(5H)-one], no less than 5000 nM.
On the same count and under the same terms, to `Cc1nc(N[C@H]2C[C@@H](COc3cnc(C#N)c(F)c3)C2)nc2c1NC(=O)[C@H](C(C)C)N2C` [Compound 694, 3-fluoro-5-((cis-3-(((S)-7-isopropyl-4,8-dimethyl-6-oxo-5,6,7,8-tetrahydropteridin-2-yl)amino)cyclobutyl)methoxy)picolinonitrile] belongs less than 300 nM; to `Cc1nc(N[C@H]2C[C@@H](Sc3ccc(OC(F)(F)F)cc3)C2)nc2c1N(C)C(=O)[C@H](C)N2C` [Compound 348, (7S)-4,5,7,8-tetramethyl-2-((cis-3-((4-(trifluoromethoxy)phenyl)thio)cyclobutyl)amino)-7,8-dihydropteridin-6(5H)-one], 1000 to 5000 nM; to `Cc1nc(NCc2cnn(Cc3ccc(C#N)nc3)c2)nc2c1NC(=O)[C@H](C)N2C` [Compound 176, (7S)-5-((4-(((4,7,8-trimethyl-6-oxo-5,6,7,8-tetrahydropteridin-2-yl)amino)methyl)-1H-pyrazol-1-yl)methyl)picolinonitrile], 300 to 1000 nM.
Turning to `Cc1nc(NC2CN(C(=O)Cc3ccc(F)c(F)c3)C2)nc2c1NC(=O)[C@H](C(C)C)N2C` [Compound 626, (S)-2-((1-(2-(3,4-difluorophenyl)acetyl)azetidin-3-yl)amino)-7-isopropyl-4,8-dimethyl-7,8-dihydropteridin-6(5H)-one], the half-maximal inhibitory concentration (IC50) (Homo sapiens, COLO 205, 5 h) was less than 300 nM.
The same measure, in the same setting: the figure for `Cc1nc(NCc2cnn(Cc3ccc4c(c3)OCO4)c2)nc2c1NC(=O)[C@H](C)N2C` [Compound 181, (7S)-2-(((1-(benzo[d][1,3]dioxol-5-ylmethyl)-1H-pyrazol-4-yl)methyl)amino)-4,7,8-trimethyl-7,8-dihydropteridin-6(5H)-one] is less than 300 nM; for `C=C1C(=O)Nc2c(C)nc(NCc3cnn(Cc4ccc(C(F)(F)F)nc4)c3)nc2N1C` [Compound 749, 4,8-dimethyl-7-methylene-2-(((1-((6-(trifluoromethyl)pyridin-3-yl)methyl)-1H-pyrazol-4-yl)methyl)amino)-7,8-dihydropteridin-6(5H)-one] it is 1000 to 5000 nM; for `Cc1nc(NCc2cnn(CCCc3ccc(C(F)(F)F)nc3)c2)nc2c1NC(=O)[C@H](C)N2C` [Compound 492, (S)-4,7,8-trimethyl-2-(((1-(3-(6-(trifluoromethyl)pyridin-3-yl)propyl)-1H-pyrazol-4-yl)methyl)amino)-7,8-dihydropteridin-6(5H)-one] it is 300 to 1000 nM.
Regarding `C[C@H]1C(=O)Nc2cnc(NCc3cnn(Cc4ccc(F)c(F)c4)c3)nc2N1C` [Compound 141, (7S)-2-(((1-(3,4-difluorobenzyl)-1H-pyrazol-4-yl)methyl)amino)-7,8-dimethyl-7,8-dihydropteridin-6(5H)-one], for the setting “Homo sapiens, COLO 205, 5 h”, the IC50 was less than 300 nM.
Turning to `Cc1nc(NC2CN(C(=O)c3cc(C(C)C)on3)C2)nc2c1NC(=O)[C@H](C(C)C)N2C` [Compound 619, (S)-7-isopropyl-2-((1-(5-isopropylisoxazole-3-carbonyl)azetidin-3-yl)amino)-4,8-dimethyl-7,8-dihydropteridin-6(5H)-one], the 50% inhibitory concentration (IC50) (Homo sapiens, COLO 205, 5 h) lay within 1000 to 5000 nM.
With `Cc1nc(N[C@H]2C[C@@H](COc3cncc(Cl)c3)C2)nc2c1NC(=O)[C@H](C)N2C` [Compound 366, (7S)-2-((cis-3-(((5-chloropyridin-3-yl)oxy)methyl)cyclobutyl)amino)-4,7,8-trimethyl-7,8-dihydropteridin-6(5H)-one], the 50% inhibitory concentration (IC50) (Homo sapiens, COLO 205, 5 h) was less than 300 nM.
On to `Cc1nc(NCc2cnn(Cc3ccc(OC(F)F)nc3)c2)nc2c1NC(=O)[C@H](C(C)C)N2C` [Compound 422, (7S)-2-(((1-((6-(difluoromethoxy)pyridin-3-yl)methyl)-1H-pyrazol-4-yl)methyl)amino)-7-isopropyl-4,8-dimethyl-7,8-dihydropteridin-6(5H)-one], for which the concentration for half-maximal inhibition (IC50) (Homo sapiens, COLO 205, 5 h) was less than 300 nM.
With `CO[C@H](C)[C@H]1C(=O)Nc2c(C)nc(NC3CN(C(=O)c4cc(F)c(F)c(F)c4)C3)nc2N1C` [Compound 568, (S)-7-((R)-1-methoxyethyl)-4,8-dimethyl-2-((1-(3,4,5-trifluorobenzoyl)azetidin-3-yl)amino)-7,8-dihydropteridin-6(5H)-one], the IC50 (Homo sapiens, COLO 205, 5 h) was less than 300 nM.
